# Laboratory results from patent US20240018123A1, “COMPOUND FOR INHIBITING OR DISINTEGRATING ANDROGEN RECEPTOR, AND PHARMACEUTICAL USE THEREOF” (KOREA RESEARCH INSTITUTE OF CHEMICAL TECHNOLOGY, priority 2020, published 2024).
# Molecular target: T1, Androgen receptor (AR) (Homo sapiens, UniProt P10275, T878A)
# T1 construct: 5.5×10^5 LNCap cells were injected into each well of a 6-well plate; endogenous in cells; host or cells: LNCaP
# T1 sequence (P10275 1-920 T878A): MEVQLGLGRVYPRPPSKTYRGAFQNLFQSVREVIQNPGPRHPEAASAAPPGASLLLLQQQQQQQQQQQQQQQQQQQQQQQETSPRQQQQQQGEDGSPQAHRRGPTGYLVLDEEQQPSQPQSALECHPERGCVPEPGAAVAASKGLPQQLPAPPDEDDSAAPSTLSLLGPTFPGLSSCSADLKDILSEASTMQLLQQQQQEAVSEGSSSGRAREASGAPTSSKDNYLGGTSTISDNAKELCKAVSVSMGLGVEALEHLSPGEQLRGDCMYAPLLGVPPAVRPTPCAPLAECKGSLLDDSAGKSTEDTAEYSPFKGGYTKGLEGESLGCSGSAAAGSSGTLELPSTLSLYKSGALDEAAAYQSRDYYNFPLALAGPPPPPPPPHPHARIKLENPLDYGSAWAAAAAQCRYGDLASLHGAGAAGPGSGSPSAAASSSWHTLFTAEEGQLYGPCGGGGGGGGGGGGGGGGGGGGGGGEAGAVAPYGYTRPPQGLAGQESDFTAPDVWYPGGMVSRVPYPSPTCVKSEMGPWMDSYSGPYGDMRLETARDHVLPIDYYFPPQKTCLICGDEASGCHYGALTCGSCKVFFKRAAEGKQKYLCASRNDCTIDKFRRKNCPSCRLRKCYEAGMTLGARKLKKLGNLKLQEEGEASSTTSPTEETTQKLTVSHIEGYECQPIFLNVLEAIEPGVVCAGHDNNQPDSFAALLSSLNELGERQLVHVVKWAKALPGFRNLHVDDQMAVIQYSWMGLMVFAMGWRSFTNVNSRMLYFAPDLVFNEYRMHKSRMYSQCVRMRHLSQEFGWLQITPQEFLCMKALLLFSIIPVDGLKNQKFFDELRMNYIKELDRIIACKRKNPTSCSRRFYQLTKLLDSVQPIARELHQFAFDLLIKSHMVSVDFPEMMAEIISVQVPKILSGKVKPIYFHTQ
# Assay: Assessment of AR proteolytic activity (Western blotting of LNCap cell lysates)
# Assay type: cell-based
# Conditions: 24 hours of treatment, Western blotting quantified with Image J
# Description: Assessment of AR Proteolytic Activity
# Androgen receptor (AR) proteolytic activity of the compound according to the present invention was evaluated as follows: Specifically, 5.5×10^5 LNCap cells were injected into each well of a 6-well plate. […] After 24 hours of treatment, cells were collected and lysed using RIPA Lysis buffer (50 mM Tris-HCl, pH7.5, 150 mM NaCl, 1% Triton X-100, 2 mM EDTA, 0.1% SDS, 0.5% sodium deoxycholate and protease inhibitor cocktail) to make cell lysates. Western blotting was performed, and the results were quantified using Image J program.
row,SMILES,"Degradation (1 μM treated in LNCaP, % AR remaining)"
1,"CC1(C)C(NC(=O)c2ccc(N3CC[C@H](CN4CCC5(CC4)CN(c4ccc6c(=O)n(C7CCC(=O)NC7=O)nnc6c4)C5)C3)nc2)C(C)(C)C1Oc1ccc(C#N)c(Cl)c1 (stereo partly drawn) [Example 189, N-((1r,3R)-3-(3-chloro-4-cyanophenoxy)-2,2,4,4-tetramethylcyclobutyl)-6-((3R)-3-((2-(3-(2,6-dioxopiperidin-3-yl)-4-oxo-3,4-dihydrobenzo[d][1,2,3]triazin-7-yl)-2,7-diazaspiro[3.5]nonan-7-yl)methyl)pyrrolidin-1-yl)nicotinamide]",14%
2,"CC1(C)[C@H](NC(=O)c2ccc(N3CC[C@H](CN4CC5(C4)CN(c4ccc6c(=O)n(C7CCC(=O)NC7=O)nnc6c4)C5)C3)nc2)C(C)(C)[C@H]1Oc1ccc(C#N)c(Cl)c1 (stereo partly drawn) [Example 190, N-((1r,3R)-3-(3-chloro-4-cyanophenoxy)-2,2,4,4-tetramethylcyclobutyl)-6-((3R)-3-((6-(3-(2,6-dioxopiperidin-3-yl)-4-oxo-3,4-dihydrobenzo[d][1,2,3]triazin-7-yl)-2,6-diazaspiro[3.3]heptan-2-yl)methyl)pyrrolidin-1-yl)nicotinamide]",11%
3,"CC1(C)C(NC(=O)c2ccc(N3CCC(CN4CCN(c5ccc6c(=O)n(C7CCC(=O)NC7=O)nnc6c5)CC4)CC3)cc2)C(C)(C)C1Oc1ccc(C#N)c(Cl)c1 (stereo not drawn) [Example 165, N-((1r,3r)-3-(3-chloro-4-cyanophenoxy)-2,2,4,4-tetramethylcyclobutyl)-4-(4-((4-(3-(2,6-dioxopiperidin-3-yl)-4-oxo-3,4-dihydrobenzo[d][1,2,3]triazin-7-yl)piperazin-1-yl)methyl)piperidin-1-yl)benzamide]",8%
4,"N#Cc1ccc(O[C@H]2CC[C@@H](NC(=O)c3ccc(N4CCC(CN5CC6(CCN(c7ccc8c(=O)n(C9CCC(=O)NC9=O)nnc8c7)CC6)C5)CC4)nc3)CC2)cc1Cl (stereo partly drawn) [Example 167, N-((1r,4r)-4-(3-chloro-4-cyanophenoxy)cyclohexyl)-6-(4-((7-(3-(2,6-dioxopiperidin-3-yl)-4-oxo-3,4-dihydrobenzo[d][1,2,3]triazin-7-yl)-2,7-diazaspiro[3.5]nonan-2-yl)methyl)piperidin-1-yl)nicotinamide]",19%
5,"CC1(C)[C@H](NC(=O)c2ccc(N3CC[C@H](CN4CC5(CCN(c6ccc7c(=O)n(C8CCC(=O)NC8=O)nnc7c6)CC5)C4)C3)nc2)C(C)(C)[C@H]1Oc1ccc(C#N)c(Cl)c1 (stereo partly drawn) [Example 185, N-((1r,3R)-3-(3-chloro-4-cyanophenoxy)-2,2,4,4-tetramethylcyclobutyl)-6-((3R)-3-((7-(3-(2,6-dioxopiperidin-3-yl)-4-oxo-3,4-dihydrobenzo[d][1,2,3]triazin-7-yl)-2,7-diazaspiro[3.5]nonan-2-yl)methyl)pyrrolidin-1-yl)nicotinamide]",10%
6,"CC1(C)C(NC(=O)c2ccc(C#CCN3CCN(c4ccc5c(=O)n(C6CCC(=O)NC6=O)nnc5c4)CC3)nc2)C(C)(C)C1Oc1ccc(C#N)c(Cl)c1 (stereo not drawn) [Example 177, N-((1r,3r)-3-(3-chloro-4-cyanophenoxy)-2,2,4,4-tetramethylcyclobutyl)-6-(3-(4-(3-(2,6-dioxopiperidin-3-yl)-4-oxo-3,4-dihydrobenzo[d][1,2,3]triazin-7-yl)piperazin-1-yl)prop-1-yn-1-yl)nicotinamide]",56%
7,"CC1(C)C(NC(=O)c2ccc(N3CCN(CCCCCOc4ccc5nnn(C6CCC(=O)NC6=O)c(=O)c5c4)CC3)nc2)C(C)(C)C1Oc1ccc(C#N)c(Cl)c1 (stereo not drawn) [Example 163, N-((1r,3r)-3-(3-chloro-4-cyanophenoxy)-2,2,4,4-tetramethylcyclobutyl)-6-(4-(5-((3-(2,6-dioxopiperidin-3-yl)-4-oxo-3,4-dihydrobenzo[d][1,2,3]triazin-6-yl)oxy)pentyl)piperazin-1-yl)nicotinamide]",10%
8,"CC1(C)C(NC(=O)c2ccc(N3CCC(CN4CCN(c5ccc6nnn(C7CCC(=O)NC7=O)c(=O)c6c5)CC4)CC3)nc2)C(C)(C)C1Oc1ccc(C#N)c(Cl)c1 (stereo not drawn) [Example 162, N-((1r,3r)-3-(3-chloro-4-cyanophenoxy)-2,2,4,4-tetramethylcyclobutyl)-6-(4-((4-(3-(2,6-dioxopiperidin-3-yl)-4-oxo-3,4-dihydrobenzo[d][1,2,3]triazin-6-yl)piperazin-1-yl)methyl)piperidin-1-yl)nicotinamide]",30%
9,"CC1(C)C(NC(=O)c2ccc(C#CCN3CC4(CCN(c5ccc6c(=O)n(C7CCC(=O)NC7=O)nnc6c5)CC4)C3)nc2)C(C)(C)C1Oc1ccc(C#N)c(Cl)c1 (stereo not drawn) [Example 179, N-((1r,3r)-3-(3-chloro-4-cyanophenoxy)-2,2,4,4-tetramethylcyclobutyl)-6-(3-(7-(3-(2,6-dioxopiperidin-3-yl)-4-oxo-3,4-dihydrobenzo[d][1,2,3]triazin-7-yl)-2,7-diazaspiro[3.5]nonan-2-yl)prop-1-yn-1-yl)nicotinamide]",8%
10,"CC1(C)[C@H](NC(=O)c2ccc(N3CCC(CCN4CCN(c5ccc6nnn(C7CCC(=O)NC7=O)c(=O)c6c5)CC4)CC3)nc2)C(C)(C)[C@H]1Oc1ccc(C#N)c(Cl)c1 (stereo partly drawn) [Example 198, N-((1r,3r)-3-(3-chloro-4-cyanophenoxy)-2,2,4,4-tetramethylcyclobutyl)-6-(4-(2-(4-(3-(2,6-dioxopiperidin-3-yl)-4-oxo-3,4-dihydrobenzo[d][1,2,3]triazin-6-yl)piperazin-1-yl)ethyl)piperidin-1-yl)nicotinamide]",10%
11,"CC1(C)[C@H](NC(=O)c2ccc(N3CCC(CN4CCC5(CC4)CN(c4ccc6c(=O)n(C7CCC(=O)NC7=O)nnc6c4)C5)CC3)nc2)C(C)(C)[C@H]1Oc1ccc(C#N)c(Cl)c1 (stereo partly drawn) [Example 171, N-((1r,3r)-3-(3-chloro-4-cyanophenoxy)-2,2,4,4-tetramethylcyclobutyl)-6-(4-((2-(3-(2,6-dioxopiperidin-3-yl)-4-oxo-3,4-dihydrobenzo[d][1,2,3]triazin-7-yl)-2,7-diazaspiro[3.5]nonan-7-yl)methyl)piperidin-1-yl)nicotinamide]",11%
12,"CC1(C)C(NC(=O)c2ccc(N3CCC(CN4CCN(C5CCN(c6ccc7c(=O)n(C8CCC(=O)NC8=O)nnc7c6)CC5)CC4)CC3)nc2)C(C)(C)C1Oc1ccc(C#N)c(Cl)c1 (stereo not drawn) [Example 193, N-((1r,3r)-3-(3-chloro-4-cyanophenoxy)-2,2,4,4-tetramethylcyclobutyl)-6-(4-((4-(1-(3-(2,6-dioxopiperidin-3-yl)-4-oxo-3,4-dihydrobenzo[d][1,2,3]triazin-7-yl)piperidin-4-yl)piperazin-1-yl)methyl)piperidin-1-yl)nicotinamide]",12%
13,"CC1(C)C(NC(=O)c2ccc(C#CCN3CC4(CCN(c5ccc6nnn(C7CCC(=O)NC7=O)c(=O)c6c5)CC4)C3)nc2)C(C)(C)C1Oc1ccc(C#N)c(Cl)c1 (stereo not drawn) [Example 180, N-((1r,3r)-3-(3-chloro-4-cyanophenoxy)-2,2,4,4-tetramethylcyclobutyl)-6-(3-(7-(3-(2,6-dioxopiperidin-3-yl)-4-oxo-3,4-dihydrobenzo[d][1,2,3]triazin-6-yl)-2,7-diazaspiro[3.5]nonan-2-yl)prop-1-yn-1-yl)nicotinamide]",18%
14,"CC1(C)C(NC(=O)c2ccc(N3CCC4(CC3)CN(CC3CN(c5ccc6c(=O)n(C7CCC(=O)NC7=O)nnc6c5)C3)C4)nc2)C(C)(C)C1Oc1ccc(C#N)c(Cl)c1 (stereo not drawn) [Example 175, N-((1r,3r)-3-(3-chloro-4-cyanophenoxy)-2,2,4,4-tetramethylcyclobutyl)-6-(2-((1-(3-(2,6-dioxopiperidin-3-yl)-4-oxo-3,4-dihydrobenzo[d][1,2,3]triazin-7-yl)azetidin-3-yl)methyl)-2,7-diazaspiro[3.5]nonan-7-yl)nicotinamide]",10%
15,"CC1(C)C(NC(=O)c2ccc(C#CC3CCN(CC4CCN(c5ccc6nnn(C7CCC(=O)NC7=O)c(=O)c6c5)CC4)CC3)nc2)C(C)(C)C1Oc1ccc(C#N)c(Cl)c1 (stereo not drawn) [Example 196, N-((1r,3r)-3-(3-chloro-4-cyanophenoxy)-2,2,4,4-tetramethylcyclobutyl)-6-((1-((1-(3-(2,6-dioxopiperidin-3-yl)-4-oxo-3,4-dihydrobenzo[d][1,2,3]triazin-6-yl)piperidin-4-yl)methyl)piperidin-4-yl)ethynyl)nicotinamide]",4%
